Measurements from patent publication US7635779B2, “Oxy substituted flavones as antihyperglycemic and antidyslipidemic agents” (Council of Scientific & Industrial Research, priority 2004, dated 2009).

Assays:
Type in all cases: in vivo, mouse
Swiss mice [1] = experiment: Barbiturate induced hypnosis (sleeping time); conditions: for Change in barbiturate induced hypnosis: 100 mg/kg p.o.; for Sleep-duration (MEAN ± SE): 100 mg/kg p.o. 30 min prior to Pentobarbitone 45 mg/kg i.p.
Procedure: Sleeping time is calculated by the duration between loss and regain of righting reflex following administration of Pentobarbitone (45 mg/kg, i.p.). 34 and 49 in the dose 100 mg/kg, p.o. was administered 30 min prior to Pentobarbitone.

Swiss mice [2] = experiment: Neuromuscular coordination (muscle tone, rota rod test); set-up: key to Muscle tone score (hind limb rigidity): 0=Flaccid; 1=Normal; 2=Rigid; conditions: for Effect on neuromuscular coordination as compared to control / Rota rod test-numbers of falls / Rota rod test-stay period at 1 h (MEAN ± SE): 100 mg/kg p.o.; for Rota rod test-stay period at 1 h (MEAN ± SE): test duration 2 min; for Muscle tone score (hind limb rigidity): resistance to passive flexion of hind-paw
Procedure: By resistance to passive flexion of each hind-paw
Score: 0=Flaccid, 1=Normal, 2=Rigid, • ii). Rota Rod Test
The period of stay on rotating rod (speed: 5 rotations/min; total duration of test 2 min) for each control and treated mice (−60 min) was recorded by Rotamex 4 (Columbus Instr., USA). The mice were trained to stay for period of 2 min on rotating rod and only trained mice were included in the study.

Swiss mice [3] = experiment: Gross behaviour: motor responses (SMA, gait, posture); set-up: key to SMA Score: scale 0-9; control group SMA = 4; conditions: for Effect on motor responses: 100 mg/kg; for SMA Score: 100 mg/kg p.o., control score 4
Procedure: 34 and 49 (100 mg/kg, p.o.) was administered in forenoon.
The gross behavioral parameters were observed as follows (based on Irwin protocol):
• i). Spontaneous motor activity [SMA]: Scored on a scale of 0-9 in which SMA in control group was assigned score 4. • ii). Posture/Position: Normal upright posture (+: present or −: absent) • iii). Gait: The mouse is allowed to move on the edge of the cage for 1 min and straight movements without fall or staggering is considered as normal. The gait is recorded as normal or abnormal; if abnormal description is provided. • iv). Ataxia: Any in-coordination in movements occurring in absence of involuntary movements. (+: present or −: absent) • v). Tremor: Involuntary movements (jerking of entire body or limbs) due to alternating contraction of muscles. (+: present or −: absent) • vi). Convulsions: Alternate contraction (flexion) and extension [clonic], or sustained extension [tonic] of limbs resulting into loss of upright posture (+: present or −: absent). • vii). Straub's tail: A sustained (>30 sec) raising of tail (making an angle >60° with the body) (+: present or −: absent) • viii). Catalepsy: A condition in which body or limbs remain passively in any position in which they are placed. It is tested by the placing forepaws on a metallic rod placed at height of 6 cm and if forepaws are not withdrawn within 10 sec catalepsy is considered to be positive (+: present or −: absent). • ix). Abnormal (Bizarre) behaviour: Stereotypy, head shaking, head searching, upright walking, and circling (+: present or −: absent). Results

Swiss mice [4] = experiment: Maximal electroshock seizures (MES); conditions: 100 mg/kg p.o.; for Numbers of mice showed seizures/numbers of mice tested: 48 mAmp for 0.2 sec
Procedure: Control and treated mice (−60 min) were subjected to electric shock (48 mAmp for 0.2 sec) through pinna electrode.

Swiss mice [5] = experiment: Gross behaviour: autonomic responses; conditions: 100 mg/kg p.o.
Procedure: 34 and 49 (100 mg/kg, p.o.) was administered in forenoon. […] Piloerection: Erection of body hairs (+: present or −: absent). • ii). Salivation: Secretion of saliva is observed as dripping of saliva from mouth, which is scored as 1=mild, 2=moderate and 3=severe as compared to control (0=no dripping). • iii). Lachrymation: Secretion and discharge of tears observed as shedding of tears around the lower eyelid, which is scored as 1=mild, 2=moderate and 3=severe as compared to control (0=no shedding). • iv). Palpebral closure: Ptosis (drooping of upper eyelids) present or absent • v). Exopthalmos: Protrusion (bulging) of eye ball; present or absent • vi). Defaecation: scored as 1=mild, 2=moderate and 3=severe as compared to control • vii). Urination: scored as 1=mild, 2=moderate and 3=severe as compared to control Results

Change in barbiturate induced hypnosis (Swiss mice [1])	Sleep-duration (MEAN ± SE) (Swiss mice [1])	Effect on motor responses (Swiss mice [3])	SMA Score (Swiss mice [3]; 0 min)	SMA Score (Swiss mice [3]; 30 min)	SMA Score (Swiss mice [3]; 60 min)	SMA Score (Swiss mice [3]; 90 min)	SMA Score (Swiss mice [3]; 120 min)	SMA Score (Swiss mice [3]; 150 min)	SMA Score (Swiss mice [3]; 180 min)	SMILES	Effect on neuromuscular coordination as compared to control (Swiss mice [2])	Rota rod test-numbers of falls (Swiss mice [2]; 30 min)	Rota rod test-numbers of falls (Swiss mice [2]; 60 min)	Rota rod test-stay period at 1 h (MEAN ± SE) (Swiss mice [2])	Rota rod test-numbers of falls (Swiss mice [2]; 90 min)	Rota rod test-numbers of falls (Swiss mice [2]; 180 min)	Rota rod test-numbers of falls (Swiss mice [2]; Pre-tt (0))	Muscle tone score (hind limb rigidity) (Swiss mice [2])	Anti-convulsant activity (Swiss mice [4])	Numbers of mice showed seizures/numbers of mice tested (Swiss mice [4])	also measured
did not show any significant change	103.4 ± 15.27 min	did not show any significant effect	4	4	4	4	4	4	4	CC(C)NCC(O)COc1ccc2c(=O)cc(-c3cc(O)cc(O)c3)oc2c1 (stereo not drawn) [Compound 49, 3′,5′-Dihydroxy-7-(2-hydroxy-3-iso-propylamino-propoxy)-flavone]	did not show any significant effect	0	1/8	112.25 ± 7.75 s	0	0	0	1	did not show any significant anti-convulsant activity	5/5	Effect on autonomic responses (Swiss mice [5]): did not show any significant effect
did not show any significant change	122.5 ± 16.7 min	did not show any significant effect	4	4	4	4	4	4	4	CC(C)(C)NCC(O)COc1ccc2c(=O)cc(-c3cc(OCc4ccccc4)cc(OCc4ccccc4)c3)oc2c1 (stereo not drawn) [Compound 34, 7-(3-tert-Butylamino-2-hydroxy-propoxy)-3′,5′-dibenzyloxy-flavone]	did not show any significant effect	0	1/8	111.87 ± 8.82 s	0	0	0	1	did not show any significant anti-convulsant activity	5/5	Effect on autonomic responses (Swiss mice [5]): did not show any significant effect
